Assay results published in PubChem BioAssay (NCI).
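Following 48 hours of exposure in 96-well plates, responses at five concentrations were used to interpolate endpoints linearly. GI50 is the concentration that inhibits growth by half. TGI: total growth inhibition.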

Legend:
Assay in all cases: NCI-60 cell line screen, 48 h
SK-OV-3 ovarian = test system: SK-OV-3 ovarian
MOLT-4 leukemia = test system: MOLT-4 leukemia
KM12 colon = test system: KM12 colon
A498 renal = test system: A498 renal
A549 NSCLC = test system: A549 NSCLC
SNB-19 CNS = test system: SNB-19 CNS
IGROV1 ovarian = test system: IGROV1 ovarian
HCT-15 colon = test system: HCT-15 colon
BT-549 breast = test system: BT-549 breast
UO-31 renal = test system: UO-31 renal
PC-3 prostate = test system: PC-3 prostate
ACHN renal = test system: ACHN renal
SNB-75 CNS = test system: SNB-75 CNS
SK-MEL-28 melanoma = test system: SK-MEL-28 melanoma
HL-60(TB) leukemia = test system: HL-60(TB) leukemia
T-47D breast = test system: T-47D breast
SK-MEL-5 melanoma = test system: SK-MEL-5 melanoma
NCI-H23 lung = test system: NCI-H23 lung
OVCAR-8 ovarian = test system: OVCAR-8 ovarian
HCT-116 colon = test system: HCT-116 colon
UACC-62 melanoma = test system: UACC-62 melanoma
COLO 205 colon = test system: COLO 205 colon
SK-MEL-2 melanoma = test system: SK-MEL-2 melanoma
MDA-MB-231 breast = test system: MDA-MB-231 breast
SF-539 CNS = test system: SF-539 CNS
HOP-92 NSCLC = test system: HOP-92 NSCLC
HOP-62 NSCLC = test system: HOP-62 NSCLC
OVCAR-5 ovarian = test system: OVCAR-5 ovarian
CCRF-CEM leukemia = test system: CCRF-CEM leukemia
NCI-H226 lung = test system: NCI-H226 lung
OVCAR-4 ovarian = test system: OVCAR-4 ovarian
SR leukemia = test system: SR leukemia
TK-10 renal = test system: TK-10 renal
NCI-H460 lung = test system: NCI-H460 lung
K-562 leukemia = test system: K-562 leukemia
MALME-3M melanoma = test system: MALME-3M melanoma
HT29 colon = test system: HT29 colon
LOX IMVI melanoma = test system: LOX IMVI melanoma
OVCAR-3 ovarian = test system: OVCAR-3 ovarian
SW-620 colon = test system: SW-620 colon
MCF7 breast = test system: MCF7 breast
M14 melanoma = test system: M14 melanoma
U251 CNS = test system: U251 CNS
SN12C renal = test system: SN12C renal
NCI/ADR-RES ovarian = test system: NCI/ADR-RES ovarian
786-0 renal = test system: 786-0 renal
UACC-257 melanoma = test system: UACC-257 melanoma
DU-145 prostate = test system: DU-145 prostate
RXF 393 renal = test system: RXF 393 renal
SF-268 CNS = test system: SF-268 CNS
MDA-MB-435 = test system: MDA-MB-435
HCC-2998 colon = test system: HCC-2998 colon
SF-295 CNS = test system: SF-295 CNS
CAKI-1 renal = test system: CAKI-1 renal
RPMI-8226 leukemia = test system: RPMI-8226 leukemia
EKVX NSCLC = test system: EKVX NSCLC
NCI-H522 lung = test system: NCI-H522 lung

## COc1ccc(/C=C2/CCOC2=O)cc1
SK-OV-3 ovarian
  GI50: > 100 µM
  TGI: > 100 µM
MOLT-4 leukemia
  GI50: > 100 µM
  TGI: > 100 µM
KM12 colon
  GI50: > 100 µM
  TGI: > 100 µM
A498 renal
  GI50: 14.9 µM
  TGI: > 100 µM
A549 NSCLC
  GI50: > 100 µM
  TGI: > 100 µM
SNB-19 CNS
  GI50: > 100 µM
  TGI: > 100 µM
IGROV1 ovarian
  GI50: > 100 µM
  TGI: > 100 µM
HCT-15 colon
  GI50: > 100 µM
  TGI: > 100 µM
BT-549 breast
  GI50: > 100 µM
  TGI: > 100 µM
UO-31 renal
  GI50: 49.8 µM
  TGI: > 100 µM
PC-3 prostate
  GI50: > 100 µM
  TGI: > 100 µM
ACHN renal
  GI50: > 100 µM
  TGI: > 100 µM
SNB-75 CNS
  GI50: > 100 µM
  TGI: > 100 µM
SK-MEL-28 melanoma
  GI50: > 100 µM
  TGI: > 100 µM
HL-60(TB) leukemia
  GI50: > 100 µM
  TGI: > 100 µM
T-47D breast
  GI50: > 100 µM
  TGI: > 100 µM
SK-MEL-5 melanoma
  GI50: > 100 µM
  TGI: > 100 µM
NCI-H23 lung
  GI50: > 100 µM
  TGI: > 100 µM
OVCAR-8 ovarian
  GI50: > 100 µM
  TGI: > 100 µM
HCT-116 colon
  GI50: > 100 µM
  TGI: > 100 µM
UACC-62 melanoma
  GI50: > 100 µM
  TGI: > 100 µM
COLO 205 colon
  GI50: > 100 µM
  TGI: > 100 µM
SK-MEL-2 melanoma
  GI50: > 100 µM
  TGI: > 100 µM
MDA-MB-231 breast
  GI50: > 100 µM
  TGI: > 100 µM
SF-539 CNS
  GI50: > 100 µM
  TGI: > 100 µM
HOP-92 NSCLC
  GI50: > 100 µM
  TGI: > 100 µM
HOP-62 NSCLC
  GI50: > 100 µM
  TGI: > 100 µM
OVCAR-5 ovarian
  GI50: > 100 µM
  TGI: > 100 µM
CCRF-CEM leukemia
  GI50: > 100 µM
  TGI: > 100 µM
NCI-H226 lung
  GI50: > 100 µM
  TGI: > 100 µM
OVCAR-4 ovarian
  GI50: > 100 µM
  TGI: > 100 µM
SR leukemia
  GI50: > 100 µM
  TGI: > 100 µM
TK-10 renal
  GI50: > 100 µM
  TGI: > 100 µM
NCI-H460 lung
  GI50: > 100 µM
  TGI: > 100 µM
K-562 leukemia
  GI50: > 100 µM
  TGI: > 100 µM
MALME-3M melanoma
  GI50: > 100 µM
  TGI: > 100 µM
HT29 colon
  GI50: > 100 µM
  TGI: > 100 µM
LOX IMVI melanoma
  GI50: > 100 µM
  TGI: > 100 µM
OVCAR-3 ovarian
  GI50: > 100 µM
  TGI: > 100 µM
SW-620 colon
  GI50: > 100 µM
  TGI: > 100 µM
MCF7 breast
  GI50: > 100 µM
  TGI: > 100 µM
M14 melanoma
  GI50: > 100 µM
  TGI: > 100 µM
U251 CNS
  GI50: > 100 µM
  TGI: > 100 µM
SN12C renal
  GI50: > 100 µM
  TGI: > 100 µM
NCI/ADR-RES ovarian
  GI50: > 100 µM
  TGI: > 100 µM
786-0 renal
  GI50: > 100 µM
  TGI: > 100 µM
UACC-257 melanoma
  GI50: > 100 µM
  TGI: > 100 µM
DU-145 prostate
  GI50: > 100 µM
  TGI: > 100 µM
RXF 393 renal
  GI50: > 100 µM
  TGI: > 100 µM
SF-268 CNS
  GI50: > 100 µM
  TGI: > 100 µM

## O=c1c2ccccc2c(C=NCCNCCO)c2oc3ccccc3n12
SK-OV-3 ovarian
  GI50: 3.58 µM
  TGI: 15.9 µM
MOLT-4 leukemia
  GI50: 1.73 µM
  TGI: 11.7 µM
MDA-MB-435
  GI50: 12.3 µM
  TGI: 24.7 µM
KM12 colon
  GI50: 10.4 µM
  TGI: 22.1 µM
HCC-2998 colon
  GI50: 13.1 µM
  TGI: 25.8 µM
A549 NSCLC
  GI50: 4.03 µM
  TGI: 17 µM
SNB-19 CNS
  GI50: 6.33 µM
  TGI: 19.6 µM
IGROV1 ovarian
  GI50: 7.64 µM
  TGI: 24 µM
HCT-15 colon
  GI50: 10.1 µM
  TGI: 23.9 µM
UO-31 renal
  GI50: 9.58 µM
  TGI: 22.5 µM
PC-3 prostate
  GI50: 13.9 µM
  TGI: 34.1 µM
ACHN renal
  GI50: 3.54 µM
  TGI: 14.9 µM
HL-60(TB) leukemia
  GI50: 4.63 µM
  TGI: 20.7 µM
SF-295 CNS
  GI50: 3.72 µM
  TGI: 13.6 µM
T-47D breast
  GI50: 4.12 µM
  TGI: 17.9 µM
SK-MEL-5 melanoma
  GI50: 7.16 µM
  TGI: 20.1 µM
CAKI-1 renal
  GI50: 4.08 µM
  TGI: 15.5 µM
NCI-H23 lung
  GI50: 19.5 µM
  TGI: 33.6 µM
OVCAR-8 ovarian
  GI50: 4.88 µM
  TGI: 19.7 µM
UACC-62 melanoma
  GI50: 11.6 µM
  TGI: 23.8 µM
RPMI-8226 leukemia
  GI50: 7.67 µM
  TGI: 31.6 µM
COLO 205 colon
  GI50: 3.27 µM
  TGI: 15.8 µM
SK-MEL-2 melanoma
  GI50: 21.3 µM
  TGI: 50.6 µM
MDA-MB-231 breast
  GI50: 11.5 µM
  TGI: 24.4 µM
SF-539 CNS
  GI50: 3.51 µM
  TGI: 12.2 µM
HOP-92 NSCLC
  GI50: 11.7 µM
  TGI: 26.9 µM
HOP-62 NSCLC
  GI50: 13 µM
  TGI: 25.6 µM
OVCAR-5 ovarian
  GI50: 15.7 µM
  TGI: 29.1 µM
CCRF-CEM leukemia
  GI50: 1.47 µM
  TGI: 16.1 µM
NCI-H226 lung
  GI50: 11.9 µM
  TGI: 29 µM
OVCAR-4 ovarian
  GI50: 16.6 µM
  TGI: 36 µM
SR leukemia
  GI50: 2.48 µM
  TGI: 6.62 µM
TK-10 renal
  GI50: 2.73 µM
  TGI: 9.61 µM
NCI-H460 lung
  GI50: 2.9 µM
  TGI: 11 µM
K-562 leukemia
  GI50: 4.31 µM
  TGI: 16.4 µM
HT29 colon
  GI50: 3.33 µM
  TGI: 16.5 µM
LOX IMVI melanoma
  GI50: 5.83 µM
  TGI: 18.4 µM
OVCAR-3 ovarian
  GI50: 11.7 µM
  TGI: 24 µM
SW-620 colon
  GI50: 4.63 µM
  TGI: 17 µM
M14 melanoma
  GI50: 15.6 µM
  TGI: 29.5 µM
U251 CNS
  GI50: 6.24 µM
  TGI: 19.5 µM
EKVX NSCLC
  GI50: 9.3 µM
  TGI: 21.2 µM
SN12C renal
  GI50: 4.34 µM
  TGI: 18.3 µM
NCI/ADR-RES ovarian
  GI50: 13.8 µM
  TGI: 26.7 µM
786-0 renal
  GI50: 12.4 µM
  TGI: 24.9 µM
UACC-257 melanoma
  GI50: 12.1 µM
  TGI: 26.7 µM
NCI-H522 lung
  GI50: 16.7 µM
  TGI: 37.7 µM
DU-145 prostate
  GI50: 12.1 µM
  TGI: 24.5 µM
RXF 393 renal
  GI50: 4.96 µM
  TGI: 22.6 µM
SF-268 CNS
  GI50: 3.63 µM
  TGI: 15.8 µM
